Data reported in PMC9427784, “Structural bases for aspartate recognition and polymerization efficiency of cyanobacterial cyanophycin synthetase” (Nature Communications, 2022).

Tests used:
[1] = target: T1, TeCphA1 (Trichodesmium erythraeum, UniProt Q113V7); assay: phosphate release, molybdenum blue colorimetry; Michaelis-Menten fit; assay type: biochemical; settings: one substrate varied; L-aspartate 5 mM, L-arginine 0.5 mM, (β-Asp-Arg)4 2 mM; 20 mM MgCl2, pH 8.2, 30°C; two ATP sites (G and M domains)
T1 construct: gene Tery_1965; full-length, C-terminal His6 tag (pET-22b(+), NdeI/XhoI), E. coli BL21(DE3); D2 homotetramer; N (1-161), G (162-487), M (488-876) domains

[2] = target: T1, TeCphA1; assay: cryo-EM structure, […] Å; assay type: binding; settings: 4 mM ATPγS, 20 mM MgCl2, pH 8.2; G and M domain sites; also in substrate-bound 7WAE (C1) and 7WAF (C2)
[3] = target: T1, TeCphA1; assay: cryo-EM structure, […] Å (C1); assay type: binding; settings: complex with ATPγS, (β-Asp-Arg)4, Mg2+; 100 mM L-aspartate, pH 8.2; G domain site, seen in chain D
[4] = target: cyanophycin synthetase (CphA1) from Trichodesmium erythraeum IMS101 (Trichodesmium erythraeum IMS101); assay: cryo-EM structure; single-particle cryo-EM of TeCphA1 in the apo, ATPγS-bound and substrate-bound states; 2-12 μM TeCphA1, Tris-HCl pH 8.0-8.2
[5] = substrate: N[C@@H](CC(=O)O)C(=O)O; assay: purified protein; settings: one substrate varied, other substrates at ATP 4 mM, L-arginine 0.5 mM, (β-Asp-Arg)4 2 mM, 20 mM MgCl2, 20 mM KCl, pH 8.2, 30°C, positively cooperative, Hill fit

Molecule: Nc1ncnc2c1ncn2[C@@H]1O[C@H](COP(=O)(O)OP(=O)(O)OP(=O)(O)O)[C@@H](O)[C@H]1O [ATP]
- apparent Km [1]: we have determined the apparent Km value for ATP

Molecule: Nc1ncnc2c1ncn2[C@@H]1O[C@H](COP(=O)(O)OP(=O)(O)OP(O)(O)=S)[C@@H](O)[C@H]1O [ATPγS]
- cryo-EM structure, 2.96 Å [2]: 7WAD for TeCphA1 bound with ATPγS

Molecule: N[C@@H](CC(=O)O)C(=O)O [L-aspartate]
- cryo-EM structure, 2.64 Å (C1) [3]: the substrate aspartate was observed only in one protomer (chain D)

Molecule: cyanophycin synthetase (CphA1) from Trichodesmium erythraeum IMS101 (enzyme)
- stoichiometry N [4]: 4

B1: TeCphA1 (Trichodesmium erythraeum IMS101) (protein)
chain: MKILKLQTLRGPNYWSIHRHKLVVMRLDLEDLYEKYTSDIPGFYKGLTEVLPSLVEHLCSPGVKGGFLTRVEKGTLIGHVIEHVAIELQELAGMPVGFGRTRETSTTGVFQVVIEYENEQAGRYAARAAVRLCQSIVDTGTYPATELQQDLEDLKELKNQASLGPSTEAIVKEAEARGIPWTQLGARFMIQFGYGVNQKKIQATLSNQTGILGVELACDKEGTKRILKDAGVPVPRGTVARYFDELQDAIEYVGGYPIVIKPLDGNHGRGITIDVKNWQEAEEAYDLARKASKTKTVIVERYYTGKDHRVLVVNGKVVAVAERVPAHVVGNGKSTIAELIEETNRDPQRGDGHDNILTRITVDKSALDILGKQGYSIDSIPLKGKKCFLRATANLSTGGIAVDRTDEIHPENVWLLSRVAKIIGLDIAGIDVVTEDISQPLREVEGVIVEVNAAPGFRMHVAPSRGLARNVAGAVMDMLFPGSKNGRIPILSVTGTNGKTTTTRLLAHIIKQTGKVVGYTTTDGTYIGEYLAETGDNTGPQSAHLILSDPTVEVAVLETARGGILRSGLGFSSCEVGIVLNVTADHLGIGDIDTIEQLAKLKSVVAESVMPKGYAVLNAEDPLVAAMADRVKGQVAYFSMDPNNELLLRHTEAGGLAAIYENGYISILKGDWTLRIEKAVNVPITMAGKAPFMIANALAACLAVFTQGVKIEHIRKGLSTFVASVDQTPGRMNMFNMGSYHALVDYAHNPASYEALGGFVRNWPGKRIGVVGGPGDRRDEDFVSLGELAADIFDEIIIKEDDDTRGRPRGNAAELICQGVKQFLNGIKNSESKATYESILDETAAINTALDRAPIDGLVVILPESVNRAISLIEGRHVIQDIELLQDSQREPKDQEVLKSSI
- K0.5 [5]: 18.0 ± 1.1 mM
